From ChEMBL document CHEMBL3046435, “Isolation and identification of insecticidal components from Citrus aurantium fruit peel extract” (2008)
Activity calls are given as the source filed them. The calls are words filed in the database; no cut-off is given here.

How the values were obtained:
Bactrocera oleae [1] = experiment: Insecticidal activity against Bactrocera oleae exposed to compound for 12 hr assessed as insect mortality measured 72 hr post dose by petri dish exposure bioassay (reference value: 2 +/- 2%); format: functional, organism-based
Bactrocera oleae [2] = experiment: Insecticidal activity against Bactrocera oleae exposed to 0.45 ug/cm2 compound for 12 hr assessed as insect mortality measured 72 hr post dose by petri dish exposure bioassay (reference value: 2 +/- 2%); format: functional, organism-based
Bactrocera oleae [3] = experiment: Insecticidal activity against Bactrocera oleae exposed to 1.12 ug/cm2 compound for 12 hr assessed as insect mortality measured 72 hr post dose by petri dish exposure bioassay (reference value: 2 +/- 2%); format: functional

SMILES	Activity (Bactrocera oleae [1])	Activity (Bactrocera oleae [2])	mortality (Bactrocera oleae [3]) [%]
COc1c2ccoc2cc2oc(=O)ccc12	inactive	inactive	
COc1ccc2ccc(=O)oc2c1CC=C(C)C		inactive	
C/C(=C\COc1c2ccoc2cc2oc(=O)ccc12)CCC1OC1(C)C (centres undefined) [6',7'-EPOXYBERGAMOTTIN]			48
